Experimental data as given in patent US6703483B1, “Compounds useful in pain management” (Cornell Research Foundation, Inc., priority 1999, dated 2004).

Assays:
[1] = Respiratory depression studies (whole body plethysmography) after i.th. administration; details: rat; for decrease of minute ventilation: during 3 to 6 hours after administration
Experimental: Whole body plethysmography was performed as described in the literature (K. Tatsumi et al., J. Appl. Physiol. 71, 37-42 (1991)). An unrestrained rat was placed in a 3-liter whole-body plethysmograph chamber and breathed 100% humidified air supplied into and out of the chamber at a rate of 1000 ml/min. After a 15-min acclimation period the inlet and outlet of the chamber were closed and the pressure changes in the box, caused by the warming and wetting of the gas inspired by the rat and the cooling and drying of the expired gas, were recorded using a high-gain differential pressure transducer. A calibration volume of 0.2 ml of air was regularly introduced into the chamber during the recordings. The recordings were made for 20-30 seconds. Subsequently, the inlet and outlet were opened, and the gas supply was changed to a mixture of 5% CO2 and 21% O2 in N2 (100% humidified) and the rat was allowed to breathe the gas mixture for 5 min to reach a steady-state ventilatory condition. The recordings of changes in pressure were repeated with the chamber closed. Tidal volumes were calculated from the pressure changes using the equation derived by J. E. Drorbaugh and W. O. Fenn, Pediatrics 16, 81-87 (1955). Respiratory frequencies were also determined from the number of respiratory cycles in the recordings and minute ventilations were calculated (tidal volume x frequency).
Compounds were administered at a low dose (3×ED50 determined in the analgesic test) and at a high dose (30×ED50).

[2] = In vivo disposition in pregnant sheep (fetal plasma, placental transfer); details: i.v. infusion to pregnant sheep
Experimental: The in vivo disposition after i.v. administration to pregnant sheep was examined by using procedures described in the literature (H. H. Szeto et al. J. Pharmacol. Exp. Ther. 284. 61-65 (1998)). Chronic indwelling catheters were surgically placed in four pregnant ewes (gestional age, 115-120 days; term ˜145 days) as described by H. H. Szeto et al., Am. J. Physiol. 258, R1453-R1458 (1990). […] The compounds according to the invention were administered as a constant-rate intravenous infusion (0.6 mg/kg/h and 0.06 mg/kg/h, respectively, for 4 h) to the sheep, and blood samples were collected at 0, 1, 2, 3, 3.5, 4, 4.25, 4.5, 5, 6, 7, 12 and 24 h. Blood samples were collected form the fetus at 0, 3, 3.5, 4, 5 and 6 h. All blood samples were collected into chilled borosilicate glass tubes containing EDTA and centrifuged, and the plasma was stored in glass containers with Teflon-lined caps and frozen at −80° C.
The compounds were quantified by using reversed-phase HPLC and MS detection, as described by Grigoriants et al., J. Chromatogr. B, Biomedical Applications 695, 287-298 (1997). […] The filtered plasma sample was chromatographed on an RP-analytical column (Delta Pak, 5 μm, C18, 100 Å, 150×3.9 mm; Waters, Milford, Mass.) at a flow rate of 1.5 ml/min, and UV absorption was monitored at 200 nm. […] Continuous flow-LSIMS was used to quantify DALDA. […]

μ receptor = biological target: T1, μ receptor (Rattus norvegicus, UniProt P33535); details: rat brain membranes; cited from earlier work
T1 construct: from tissue; host or cells: rat brain (cerebellum removed) membranes
T1 sequence (P33535 whole entry): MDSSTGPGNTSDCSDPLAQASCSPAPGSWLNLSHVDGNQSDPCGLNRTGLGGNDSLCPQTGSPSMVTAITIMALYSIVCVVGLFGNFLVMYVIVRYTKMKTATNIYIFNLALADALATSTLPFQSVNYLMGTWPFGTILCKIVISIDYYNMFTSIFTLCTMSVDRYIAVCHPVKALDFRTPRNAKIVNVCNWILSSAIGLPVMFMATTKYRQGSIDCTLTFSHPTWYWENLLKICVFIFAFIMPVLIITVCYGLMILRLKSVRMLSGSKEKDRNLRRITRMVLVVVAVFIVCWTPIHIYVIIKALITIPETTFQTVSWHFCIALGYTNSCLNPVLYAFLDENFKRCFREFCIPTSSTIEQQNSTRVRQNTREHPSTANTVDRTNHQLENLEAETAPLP

μ receptors = details: GPI; cited from earlier work
[3] = Hemodynamic and metabolic effects in the pregnant sheep model; assay type: in vivo; details: i.v. infusion 0.6 mg/kg/h and 0.06 mg/kg/h, respectively
Experimental: Using the same instrumented pregnant sheep model described above, DALDA and its analogs were administered by i.v. infusion at a dose of 0.6 mg/kg/h and 0.06 mg/kg/h, respectively. No effect on maternal blood pressure, heart rate, blood gases and plasma glucose were observed. Similarly, neither peptide had any effect on fetal blood pressure, heart rate, blood gases and plasma glucose.

[4] = 2 h after i.th. administration, dose 7.5 μg (32×ED50); cited from earlier work

| SMILES | decrease of minute ventilation compared to saline control ([1]; low dose (3×ED50) and high dose (30×ED50)) | crossing of the placental barrier [2] | μ receptor affinity (μ receptor) | μ receptor selectivity (μ receptor) | μ agonist potency (μ receptors) | effect on maternal blood pressure, heart rate, blood gases and plasma glucose [3] | delayed respiratory depression [4] | decrease of minute ventilation ([1]; high dose (30×ED50)) | decrease of minute ventilation ([1]; low dose (3×ED50)) |
| --- | --- | --- | --- | --- | --- | --- | --- | --- | --- |
| Cc1cc(O)cc(C)c1C[C@H](N)C(=O)N[C@H](CCCNC(=N)N)C(=O)N[C@@H](Cc1ccccc1)C(=O)N[C@@H](CCCCN)C(N)=O [Example 1, H-Dmt-D-Arg-Phe-Lys-NH2] | Neither dose of H-Dmt-D-Arg-Phe-Lys-NH2 significantly decreased minute ventilation |  |  |  |  |  |  |  |  |
| NCCCC[C@H](NC(=O)[C@H](Cc1ccccc1)NC(=O)[C@@H](CCCN=C(N)N)NC(=O)[C@@H](N)Cc1ccc(O)cc1)C(N)=O [DALDA, H-Tyr-D-Arg-Phe-Lys-NH2] |  | do not cross the placental barrier to a significant extent | high μ receptor affinity | excellent μ receptor selectivity | considerable μ agonist potency | No effect | did produce delayed respiratory depression | 30% | 26% |
| CN1CC[C@]23c4c5ccc(O)c4O[C@H]2[C@@H](O)C=C[C@H]3[C@H]1C5 [morphine] |  |  |  |  |  |  |  | 26% |  |
